In general, IC50 refers to the midpoint of a concentration-inhibition curve.

Structures are written as SMILES.

The values below come from patent US20240109917A1 (ACTELION PHARMACEUTICALS LTD, priority 2020, published 2024).

Assay [1] addresses Tb-labeled inactive PDGFRβ (Homo sapiens (Human), UniProt P09619). Put plainly: PDGFRβ LanthaScreen Assay. Type of assay: binding. To be noted: read-out: PDGFR Lantha IC50. On the technique in general: TR-FRET usually uses a lanthanide donor and a delayed reading to cut background.
The target in another assay is VEGFR2, unphosphorylated (Homo sapiens (Human), UniProt P35968). Description: VEGFR ADP GLO Assay. Type of assay: biochemical. (In general: ADP-Glo turns the ADP formed in a reaction into a luminescent signal.)
Chain of VEGFR2, unphosphorylated (P35968 20-1356): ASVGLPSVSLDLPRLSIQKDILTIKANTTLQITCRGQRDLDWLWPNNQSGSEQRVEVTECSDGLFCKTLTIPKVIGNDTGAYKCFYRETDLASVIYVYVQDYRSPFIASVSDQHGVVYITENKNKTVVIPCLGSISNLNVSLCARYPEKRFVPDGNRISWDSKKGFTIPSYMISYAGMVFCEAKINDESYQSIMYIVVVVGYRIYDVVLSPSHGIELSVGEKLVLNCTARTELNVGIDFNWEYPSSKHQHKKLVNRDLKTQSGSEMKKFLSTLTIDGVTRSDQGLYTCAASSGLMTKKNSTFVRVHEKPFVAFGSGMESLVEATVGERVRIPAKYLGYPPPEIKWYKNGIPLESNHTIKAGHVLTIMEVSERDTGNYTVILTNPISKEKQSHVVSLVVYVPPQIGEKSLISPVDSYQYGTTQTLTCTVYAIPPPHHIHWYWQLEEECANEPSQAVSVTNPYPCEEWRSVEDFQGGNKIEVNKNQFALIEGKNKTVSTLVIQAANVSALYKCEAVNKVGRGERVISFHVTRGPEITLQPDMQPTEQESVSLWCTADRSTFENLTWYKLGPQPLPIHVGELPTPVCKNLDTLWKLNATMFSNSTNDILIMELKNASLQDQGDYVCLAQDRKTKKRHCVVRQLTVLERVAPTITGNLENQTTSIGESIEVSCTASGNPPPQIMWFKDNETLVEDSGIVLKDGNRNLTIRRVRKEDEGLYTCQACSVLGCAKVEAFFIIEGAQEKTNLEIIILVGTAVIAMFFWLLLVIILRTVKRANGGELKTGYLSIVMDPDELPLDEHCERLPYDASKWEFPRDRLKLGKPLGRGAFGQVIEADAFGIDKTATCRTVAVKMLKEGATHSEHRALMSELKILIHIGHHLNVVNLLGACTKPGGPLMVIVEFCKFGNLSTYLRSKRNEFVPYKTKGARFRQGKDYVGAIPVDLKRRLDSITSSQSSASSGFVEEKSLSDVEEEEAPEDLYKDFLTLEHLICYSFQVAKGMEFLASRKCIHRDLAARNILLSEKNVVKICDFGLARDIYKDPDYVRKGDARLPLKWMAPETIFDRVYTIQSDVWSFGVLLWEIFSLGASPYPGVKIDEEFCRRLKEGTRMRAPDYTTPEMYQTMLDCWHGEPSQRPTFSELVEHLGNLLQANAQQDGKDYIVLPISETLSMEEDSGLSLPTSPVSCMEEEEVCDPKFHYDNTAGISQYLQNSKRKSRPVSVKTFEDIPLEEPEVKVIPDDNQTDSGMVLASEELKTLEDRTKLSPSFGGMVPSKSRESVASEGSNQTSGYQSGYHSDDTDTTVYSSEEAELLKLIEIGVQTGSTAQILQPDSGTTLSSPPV

Chain of Tb-labeled inactive PDGFRβ (P09619 33-1106): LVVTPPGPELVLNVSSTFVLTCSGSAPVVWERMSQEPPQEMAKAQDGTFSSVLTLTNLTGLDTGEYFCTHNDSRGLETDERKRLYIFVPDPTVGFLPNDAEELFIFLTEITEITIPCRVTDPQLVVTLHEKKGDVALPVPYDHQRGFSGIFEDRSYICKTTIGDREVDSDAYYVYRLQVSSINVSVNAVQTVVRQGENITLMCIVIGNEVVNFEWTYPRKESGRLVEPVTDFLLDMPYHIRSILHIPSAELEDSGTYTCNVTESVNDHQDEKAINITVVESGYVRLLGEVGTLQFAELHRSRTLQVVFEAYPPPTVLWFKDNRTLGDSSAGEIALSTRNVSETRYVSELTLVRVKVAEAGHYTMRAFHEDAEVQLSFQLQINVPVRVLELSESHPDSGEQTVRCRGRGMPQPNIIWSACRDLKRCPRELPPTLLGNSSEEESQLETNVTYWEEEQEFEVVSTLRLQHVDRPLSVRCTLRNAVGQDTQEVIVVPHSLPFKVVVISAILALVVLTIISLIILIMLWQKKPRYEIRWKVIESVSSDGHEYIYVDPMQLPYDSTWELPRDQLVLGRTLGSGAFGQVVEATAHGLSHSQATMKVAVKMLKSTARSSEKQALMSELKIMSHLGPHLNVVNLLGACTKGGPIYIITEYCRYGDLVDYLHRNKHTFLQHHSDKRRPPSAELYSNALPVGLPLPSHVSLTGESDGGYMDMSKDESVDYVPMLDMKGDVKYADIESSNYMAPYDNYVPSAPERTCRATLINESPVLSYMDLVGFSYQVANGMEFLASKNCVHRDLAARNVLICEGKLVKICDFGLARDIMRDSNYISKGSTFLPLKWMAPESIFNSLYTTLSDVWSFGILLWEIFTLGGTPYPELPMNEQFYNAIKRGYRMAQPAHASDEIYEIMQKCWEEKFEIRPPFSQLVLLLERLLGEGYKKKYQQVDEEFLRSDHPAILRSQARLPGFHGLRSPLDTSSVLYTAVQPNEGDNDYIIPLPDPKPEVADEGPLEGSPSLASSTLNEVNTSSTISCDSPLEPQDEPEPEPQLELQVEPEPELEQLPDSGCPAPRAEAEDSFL

`Cc1ncc(NC(=O)CN2C[C@@H](C)O[C@H](C)C2)cc1NC(=O)c1cnn2cc(-c3cnn(CCS(C)(=O)=O)c3)sc12` (relative stereo) [Example 432, N-(5-(2-(trans-2,6-dimethylmorpholino)acetamido)-2-methylpyridin-3-yl)-2-(1-(2-(methylsulfonyl)ethyl)-1H-pyrazol-4-yl)pyrazolo[5,1-b]thiazole-7-carboxamide]: the IC50 in assay [1] is 9.2 nM; against VEGFR2, unphosphorylated, > 2500 nM.

As for `Cc1ncc(NC(=O)CN2C[C@@H](C)O[C@H](C)C2)cc1NC(=O)c1cnn2cc(-c3cnn(C)c3C)sc12` (relative stereo) [Example 433, 2-(1,5-Dimethyl-1H-pyrazol-4-yl)-N-(5-(2-(trans-2,6-dimethylmorpholino)acetamido)-2-methylpyridin-3-yl)pyrazolo[5,1-b]thiazole-7-carboxamide], the IC50 in assay [1] was 4 nM; against VEGFR2, unphosphorylated it was > 7500 nM.

Regarding `Cc1ncc(NC(=O)CN2CCCC[C@@H]2C)cc1NC(=O)c1cnn2cc(-c3cnn(CCO)c3)sc12` [Example 34, (S)-2-(1-(2-hydroxyethyl)-1H-pyrazol-4-yl)-N-(2-methyl-5-(2-(2-methyl-piperidin-1-yl)acetamido)pyridin-3-yl)pyrazolo[5,1-b]thiazole-7-carboxamide], the IC50 is 13.4 nM in assay [1] and > 7500 nM against VEGFR2, unphosphorylated.

Take `Cc1cc(C(=O)NCCN2CCCC23CCC3)sc1NC(=O)c1cnn2cc(-c3cnn(C)c3)sc12` [Example 35, N-(5-((2-(5-azaspiro[3.4]octan-5-yl)ethyl)carbamoyl)-3-methylthiophen-2-yl)-2-(1-methyl-1H-pyrazol-4-yl)pyrazolo[5,1-b]thiazole-7-carboxamide]: the IC50 in assay [1] is 71.4 nM; against VEGFR2, unphosphorylated it was > 7500 nM.

With `Cc1cc(C(=O)NCCN2CCCC2(C)C)sc1NC(=O)c1cnn2cc(-c3cccnc3)sc12` [Example 36, N-(5-((2-(2,2-dimethylpyrrolidin-1-yl)ethyl)carbamoyl)-3-methylthiophen-2-yl)-2-(pyridin-3-yl)pyrazolo[5,1-b]thiazole-7-carboxamide], the IC50 is 19.3 nM in assay [1] and > 7500 nM against VEGFR2, unphosphorylated.

As for `Cc1cc(C(=O)NCCN2CCCC23CC3)sc1NC(=O)c1cnn2cc(-c3cnn(C)c3)sc12` [Example 37, N-(5-((2-(4-azaspiro[2.4]heptan-4-yl)ethyl)carbamoyl)-3-methylthiophen-2-yl)-2-(1-methyl-1H-pyrazol-4-yl)pyrazolo[5,1-b]thiazole-7-carboxamide], the IC50 is 892 nM in assay [1] and > 7500 nM at VEGFR2, unphosphorylated.

Consider `Cc1ncc(NC(=O)NCCN2CCCC2(C)C)cc1NC(=O)c1cnn2cc(-c3cnn(C)c3)sc12` [Example 38, N-(5-(3-(2-(2,2-dimethylpyrrolidin-1-yl)ethyl)ureido)-2-methyl-pyridin-3-yl)-2-(1-methyl-1H-pyrazol-4-yl)pyrazolo[5,1-b]thiazole-7-carboxamide], for which the IC50 in assay [1] is 33.5 nM; on VEGFR2, unphosphorylated, > 7500 nM.

On to `Cc1ncc(NC(=O)CN2CC(C)(C)C2)cc1NC(=O)c1cnn2cc(-c3cnn4c3OCCC4)sc12` [Example 39, 2-(6,7-dihydro-5H-pyrazolo[5,1-b][1,3]oxazin-3-yl)-N-(5-(2-(3,3-dimethylazetidin-1-yl)acetamido)-2-methylpyridin-3-yl)pyrazolo[5,1-b]thiazole-7-carboxamide], for which the IC50 in assay [1] was found to be 1.9 nM; on VEGFR2, unphosphorylated, 2040 nM.

Turning to `COc1ccncc1-c1cn2ncc(C(=O)Nc3cc(NC(=O)CN4CC(C)(C)C4)cnc3C)c2s1` [Example 40, N-(5-(2-(3,3-dimethylazetidin-1-yl)acetamido)-2-methylpyridin-3-yl)-2-(4-methoxypyridin-3-yl)pyrazolo[5,1-b]thiazole-7-carboxamide], the half-inhibitory concentration (IC50) was 1.7 nM in assay [1] and 6180 nM on VEGFR2, unphosphorylated.

Turning to `COCCn1cc(-c2cn3ncc(C(=O)Nc4cc(NC(=O)CCN5CCCC5(C)C)cnc4C)c3s2)cn1` [Example 41, N-(5-(3-(2,2-dimethylpyrrolidin-1-yl)propanamido)-2-methylpyridin-3-yl)-2-(1-(2-methoxyethyl)-1H-pyrazol-4-yl)pyrazolo[5,1-b]thiazole-7-carboxamide], the IC50 is 4.7 nM in assay [1] and > 7500 nM against VEGFR2, unphosphorylated.

Take `Cc1ncc(NC(=O)CN2CCC23CCC3)cc1NC(=O)c1cnn2cc(-c3cnn4c3OCCC4)sc12` [Example 408, N-(5-(2-(1-azaspiro[3.3]heptan-1-yl)acetamido)-2-methylpyridin-3-yl)-2-(6,7-dihydro-5H-pyrazolo[5,1-b][1,3]oxazin-3-yl)pyrazolo[5,1-b]thiazole-7-carboxamide]: the 50% inhibitory concentration (IC50) in assay [1] was 1.8 nM; at VEGFR2, unphosphorylated, > 7500 nM.

As to `Cc1ncc(NC(=O)CN2CC(C)(C)C2)cc1NC(=O)c1cnn2cc(-c3cnn4c3CCC4)sc12` [Example 409, 2-(5,6-dihydro-4H-pyrrolo[1,2-b]pyrazol-3-yl)-N-(5-(2-(3,3-dimethylazetidin-1-yl)acetamido)-2-methylpyridin-3-yl)pyrazolo[5,1-b]thiazole-7-carboxamide], the IC50 in assay [1] is 1.3 nM; at VEGFR2, unphosphorylated, 3370 nM.

Take `Cc1ncc(NC(=O)CN2CC(C)(C)C2)cc1NC(=O)c1cnn2cc(-c3ccnnc3C)sc12` [Example 410, N-(5-(2-(3,3-dimethylazetidin-1-yl)acetamido)-2-methylpyridin-3-yl)-2-(3-methylpyridazin-4-yl)pyrazolo[5,1-b]thiazole-7-carboxamide]: the IC50 in assay [1] is 190 nM; against VEGFR2, unphosphorylated it was > 7500 nM.

As for `Cc1ncc(NC(=O)CN2CC3(COC3)C2)cc1NC(=O)c1cnn2cc(-c3cnn4c3OCCC4)sc12` [Example 411, N-(5-(2-(2-oxa-6-azaspiro[3.3]heptan-6-yl)acetamido)-2-methylpyridin-3-yl)-2-(6,7-dihydro-5H-pyrazolo[5,1-b][1,3]oxazin-3-yl)pyrazolo[5,1-b]thiazole-7-carboxamide], the IC50 in assay [1] is 6.6 nM; against VEGFR2, unphosphorylated, > 7500 nM.

Turning to `Cc1ncc(NC(=O)CN2CCC2)cc1NC(=O)c1cnn2cc(-c3cnn4c3OCCC4)sc12` [Example 412, N-(5-(2-(azetidin-1-yl)acetamido)-2-methylpyridin-3-yl)-2-(6,7-dihydro-5H-pyrazolo[5,1-b][1,3]oxazin-3-yl)pyrazolo[5,1-b]thiazole-7-carboxamide], the IC50 in assay [1] is 34.6 nM; against VEGFR2, unphosphorylated, > 7500 nM.

As for `Cc1ncc(NC(=O)CN2CCC[C@@H]2C)cc1NC(=O)c1cnn2cc(-c3cnn4c3OCCC4)sc12` [Example 413, (S)-2-(6,7-dihydro-5H-pyrazolo[5,1-b][1,3]oxazin-3-yl)-N-(2-methyl-5-(2-(2-methylpyrrolidin-1-yl)acetamido)pyridin-3-yl)pyrazolo[5,1-b]thiazole-7-carboxamide], the IC50 is 2.9 nM in assay [1] and > 7500 nM at VEGFR2, unphosphorylated.

For the compound `Cc1ncc(NC(=O)CNCC(C)C)cc1NC(=O)c1cnn2cc(-c3cnn4c3OCCC4)sc12` [Example 414, 2-(6,7-dihydro-5H-pyrazolo[5,1-b][1,3]oxazin-3-yl)-N-(5-(2-(isobutylamino)acetamido)-2-methylpyridin-3-yl)pyrazolo[5,1-b]thiazole-7-carboxamide], the IC50 was 3.3 nM in assay [1] and 5100 nM against VEGFR2, unphosphorylated.

In the case of `Cc1ncc(NC(=O)CN2CC(C)(C)C2)cc1NC(=O)c1cnn2cc(-c3cnc4n3CCOC4)sc12` [Example 415, 2-(5,6-dihydro-8H-imidazo[2,1-c][1,4]oxazin-3-yl)-N-(5-(2-(3,3-dimethylazetidin-1-yl)acetamido)-2-methylpyridin-3-yl)pyrazolo[5,1-b]thiazole-7-carboxamide], the IC50 in assay [1] is 6.6 nM; at VEGFR2, unphosphorylated it was > 7500 nM.

Regarding `Cc1ncc(NC(=O)CN2CCC[C@@H]2C)cc1NC(=O)c1cnn2cc(-c3cnn4c3CCC4)sc12` [Example 416, (S)-2-(5,6-dihydro-4H-pyrrolo[1,2-b]pyrazol-3-yl)-N-(2-methyl-5-(2-(2-methylpyrrolidin-1-yl)acetamido)pyridin-3-yl)pyrazolo[5,1-b]thiazole-7-carboxamide], the IC50 in assay [1] was 1.6 nM; at VEGFR2, unphosphorylated, > 7500 nM.

Take `Cc1ncc(NC(=O)CN2CCCC23CCC3)cc1NC(=O)c1cnn2cc(-c3cnn4c3COCC4)sc12` [Example 417, N-(5-(2-(5-azaspiro[3.4]octan-5-yl)acetamido)-2-methylpyridin-3-yl)-2-(6,7-dihydro-4H-pyrazolo[5,1-c][1,4]oxazin-3-yl)pyrazolo[5,1-b]thiazole-7-carboxamide]: the IC50 in assay [1] was 2.8 nM; on VEGFR2, unphosphorylated, > 7500 nM.

For the compound `Cc1ncc(NC(=O)CN2CCCC23CCC3)cc1NC(=O)c1cnn2cc(-c3cnc4n3CCOC4)sc12` [Example 418, N-(5-(2-(5-azaspiro[3.4]octan-5-yl)acetamido)-2-methylpyridin-3-yl)-2-(5,6-dihydro-8H-imidazo[2,1-c][1,4]oxazin-3-yl)pyrazolo[5,1-b]thiazole-7-carboxamide], the IC50 in assay [1] was 2.9 nM; against VEGFR2, unphosphorylated, > 7500 nM.

As to `Cc1ncc(NC(=O)CN2CCCCC2)cc1NC(=O)c1cnn2cc(-c3cnn4c3OCCC4)sc12` [Example 419, 2-(6,7-dihydro-5H-pyrazolo[5,1-b][1,3]oxazin-3-yl)-N-(2-methyl-5-(2-(piperidin-1-yl)acetamido)pyridin-3-yl)pyrazolo[5,1-b]thiazole-7-carboxamide], the IC50 is 2.8 nM in assay [1] and > 7500 nM on VEGFR2, unphosphorylated.

In the case of `Cc1ncc(NC(=O)CN2CCCCCC2)cc1NC(=O)c1cnn2cc(-c3cnn4c3OCCC4)sc12` [Example 420, N-(5-(2-(azepan-1-yl)acetamido)-2-methylpyridin-3-yl)-2-(6,7-dihydro-5H-pyrazolo[5,1-b][1,3]oxazin-3-yl)pyrazolo[5,1-b]thiazole-7-carboxamide], the IC50 in assay [1] was 2.1 nM; at VEGFR2, unphosphorylated, > 7500 nM.

As to `Cc1ncc(NC(=O)CNC2CCCC2)cc1NC(=O)c1cnn2cc(-c3cnn4c3OCCC4)sc12` [Example 421, N-(5-(2-(cyclopentylamino)acetamido)-2-methylpyridin-3-yl)-2-(6,7-dihydro-5H-pyrazolo[5,1-b][1,3]oxazin-3-yl)pyrazolo[5,1-b]thiazole-7-carboxamide], the IC50 in assay [1] was 2 nM; against VEGFR2, unphosphorylated, > 7500 nM.
